Molecules are shown by their SMILES. Activity calls are given as the source filed them. How the calls were made is not given here.

Broadly, the EC50 is the concentration that produces a half-maximal response. A lower EC50 goes with greater potency.

For assay [1], the system named is Schistosoma mansoni. Briefly: In vitro activity on S. mansoni schistosomula at 50 uM. It counts as functional, organism-based. Details: test concentration 50 uM, temperature 37 degree C, time incubation 72 h. To be noted: Puerto Rican.
The test system of assay [2] is Schistosoma mansoni. Briefly: In vitro activity on S. mansoni schistosomula at 10 uM. It counts as functional, organism-based. The arrangement: test concentration 10 uM, temperature 37 degree C, time incubation 72 h. The conditions noted are these: Puerto Rican.
Assay [3] concerns Schistosoma mansoni. Briefly: EC50 on S. mansoni schistosomula. The assay is classed as functional, organism-based. The conditions noted are these: Puerto Rican.
Assay [4] relates to Schistosoma mansoni. It counts as functional, Puerto Rican. The conditions noted are these: temperature 37 degree C; tested at 10 uM; Worm movement inhibition (compared to DMSO control)_lower value 0 %; Worm movement inhibition (compared to DMSO control)_upper value 100 %.
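Wherever Worm movement inhibition is given: in vitro assay using adult worms.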

In the case of `Cc1[nH]c(/C=C2\C(=O)Nc3ccc(S(=O)(=O)Cc4c(Cl)cccc4Cl)cc32)c(C)c1C(=O)N1CCC[C@@H]1CN1CCCC1` [PHA-665752], the In vitro activity result in the assay on Schistosoma mansoni [1] and with Schistosoma mansoni [2] was “Active” each time. Also, it took 4510 nM to reach a half-maximal effect in the assay on Schistosoma mansoni [3] (EC50). In the assay with Schistosoma mansoni [4], this molecule came in with a Worm movement inhibition of 99.71%.
Regarding `C[C@@H]1C[C@H]2O[C@@H]2/C=C\C=C\C(=O)Cc2c(Cl)c(O)cc(O)c2C(=O)O1` [RADICICOL], the In vitro activity result with Schistosoma mansoni [1] and with Schistosoma mansoni [2] was “Active” throughout. The molecule further registered an EC50 in the assay on Schistosoma mansoni [3] of 1830 nM. In addition, the Worm movement inhibition with Schistosoma mansoni [4] is on record as 82.43%.
Take `CC[C@H](C)[C@H](NC(=O)[C@H]([C@@H](C)CC)N(C)C(C)=O)C(=O)N[C@H](C(=O)N[C@@H](CC(C)C)C(=O)[C@@]1(C)CO1)[C@@H](C)O` [EPOXOMYCIN]: the In vitro activity entry with Schistosoma mansoni [1] and in the assay with Schistosoma mansoni [2] was “Active” throughout. The molecule further displayed an EC50 in the assay with Schistosoma mansoni [3] of 226 nM. The Worm movement inhibition in the assay on Schistosoma mansoni [4] was 97.15%.
For `Cc1n[nH]c2ccc(-c3cncc(OC[C@@H](N)Cc4ccccc4)c3)cc12`, the In vitro activity result in the assay on Schistosoma mansoni [1] and with Schistosoma mansoni [2] was “Active” each time. For the same molecule, the EC50 in the assay with Schistosoma mansoni [3] is 2930 nM. The molecule further registered a Worm movement inhibition in the assay on Schistosoma mansoni [4] of 93.77%.
Take `CC(/C=C/C(=O)NO)=C\[C@@H](C)C(=O)c1ccc(N(C)C)cc1` [TRICHOSTATIN]: the In vitro activity entry with Schistosoma mansoni [1] and in the assay on Schistosoma mansoni [2] was “Active” each time. The molecule further returned an EC50 in the assay with Schistosoma mansoni [3] of 558 nM. In the assay with Schistosoma mansoni [4], this molecule registered a Worm movement inhibition of 8.13%.
`COc1ccc(-c2nc(N3CCOCC3)c3sc(CN(C)c4ncc(C(=O)NO)cn4)cc3n2)cn1` [FIMEPINOSTAT]: the In vitro activity entry with Schistosoma mansoni [1] and in the assay with Schistosoma mansoni [2] was “Active” throughout. Besides, in the assay with Schistosoma mansoni [3], the EC50 came out at 606 nM. The same molecule showed a Worm movement inhibition in the assay on Schistosoma mansoni [4] of 56.87%.
For the molecule `O=C1Nc2cc(Br)ccc2/C1=C1/Nc2ccccc2/C1=N\O` [6BIO], the In vitro activity result with Schistosoma mansoni [1] and with Schistosoma mansoni [2] was “Active” each time. In the assay on Schistosoma mansoni [4], this molecule yielded a Worm movement inhibition of 95.74%.
On to `COc1cc(N2CCN(C)CC2)ccc1Nc1nccc(-c2cn(C)c3cnccc23)n1`, for which the In vitro activity entry in the assay with Schistosoma mansoni [1] and with Schistosoma mansoni [2] was “Active” in each case. In the assay on Schistosoma mansoni [3], this molecule displayed an EC50 of 3400 nM. The Worm movement inhibition in the assay with Schistosoma mansoni [4] was 93.2%.
Turning to `CCNC(=O)c1cc2c(-c3cc(OCCN4CCCC4)c(Cl)cc3Cl)nc(N)nc2s1`, the In vitro activity entry in the assay with Schistosoma mansoni [1] and in the assay with Schistosoma mansoni [2] was “Active” each time. In the assay with Schistosoma mansoni [3], this molecule yielded an EC50 of 547 nM. In addition, the Worm movement inhibition in the assay with Schistosoma mansoni [4] was 91.33%.
Consider `CC1(C)CC(=O)c2c(C(F)(F)F)nn(-c3ccc(C(N)=O)c(N[C@H]4CC[C@H](O)CC4)c3)c2C1` [SNX-2112], for which the In vitro activity entry in the assay on Schistosoma mansoni [1] and in the assay with Schistosoma mansoni [2] was “Active” throughout. For the same molecule, a half-maximal response with Schistosoma mansoni [3] (EC50) required 1940 nM. For the same molecule, the Worm movement inhibition with Schistosoma mansoni [4] worked out at 25.47%.
In the case of `Cl.Cl.O=C(NCCCNc1nc(Nc2cccc(CN3CCOCC3)c2)ncc1C1CC1)C1CCC1`, the In vitro activity result with Schistosoma mansoni [1] and in the assay on Schistosoma mansoni [2] was “Active” each time. Further, in the assay with Schistosoma mansoni [3], the EC50 came out at 3130 nM. For the same molecule, the Worm movement inhibition in the assay on Schistosoma mansoni [4] came to 97.58%.
In the case of `COc1cc(N2CCC(N3CCN(C)CC3)CC2)ccc1Nc1ncc(Cl)c(Nc2ccccc2S(=O)(=O)C(C)C)n1` [TAE-684], the In vitro activity result in the assay with Schistosoma mansoni [1] and in the assay with Schistosoma mansoni [2] was “Active” throughout. The same molecule had a half-maximal effective concentration (EC50) in the assay with Schistosoma mansoni [3] of 2400 nM. The same molecule yielded a Worm movement inhibition in the assay with Schistosoma mansoni [4] of 99.53%.
On to `Cc1cccc(-c2nc(Nc3ccncc3)c3ccccc3n2)n1`, for which the In vitro activity result in the assay on Schistosoma mansoni [1] and in the assay with Schistosoma mansoni [2] was “Active” each time. This molecule also yielded an EC50 in the assay on Schistosoma mansoni [3] of 2620 nM. This molecule also displayed a Worm movement inhibition in the assay with Schistosoma mansoni [4] of 40.28%.
With `Nc1nc2c(ncn2[C@@H]2O[C@H](COP(=O)(O)OP(=O)(O)O)[C@@H](O)[C@H]2O)c(=O)[nH]1`, the In vitro activity result in the assay with Schistosoma mansoni [1] and in the assay on Schistosoma mansoni [2] was “inactive” each time.
On to `CNc1ncc2cc(-c3ccc(-c4cccc(C)n4)cc3Cl)c(=O)n(C[C@H]3OC[C@H](N)CO3)c2n1`, for which the In vitro activity entry with Schistosoma mansoni [1] and in the assay on Schistosoma mansoni [2] was “Active” throughout. Further, in the assay with Schistosoma mansoni [3], the EC50 is 2840 nM. This molecule yielded a Worm movement inhibition with Schistosoma mansoni [4] of 98.47%.
In the case of `NC(=O)c1ccc(-c2nc(-c3ccccn3)c(-c3ccc4c(c3)OCO4)[nH]2)cc1`, in the assay on Schistosoma mansoni [1], the In vitro activity result is “Active”. In addition, the In vitro activity result in the assay on Schistosoma mansoni [2] is “inactive”.
The like results for `Fc1ccc(Cl)cc1-c1nc(Nc2ccncc2)c2nccnc2n1` were, in that order, “inactive” and “inactive”.
Regarding `CC[C@@]1(O)C(=O)OCc2c1cc1n(c2=O)Cc2cc3ccccc3nc2-1`, the In vitro activity result with Schistosoma mansoni [1] was “Active”. Besides, in the assay with Schistosoma mansoni [2], the In vitro activity result was “inactive”.
Turning to `O=C(c1ccc(/C=C/c2n[nH]c3ccccc23)cc1)N1CCNCC1`, in the assay on Schistosoma mansoni [1], the In vitro activity entry is “Active”. The In vitro activity result with Schistosoma mansoni [2] is “inactive”.
In the case of `CC(C)NCCCn1c(Sc2cc3c(cc2I)OCO3)nc2c(N)ncnc21`, the In vitro activity result in the assay with Schistosoma mansoni [1] is “Active”. Moreover, the In vitro activity result in the assay with Schistosoma mansoni [2] is “inactive”.
The like results for `Nc1ncnc2c1ncn2[C@@H]1O[C@H](COP(=O)(O)OP(=O)(O)O)[C@@H](O)[C@H]1O` were, in that order, “inactive” and “inactive”.
In the case of `CCNC(=O)c1noc(-c2cc(C(C)C)c(O)cc2O)c1-c1ccc(CN2CCOCC2)cc1` [LUMINESPIB], the In vitro activity result in the assay on Schistosoma mansoni [1] and in the assay on Schistosoma mansoni [2] was “Active” throughout. The same molecule showed an EC50 in the assay with Schistosoma mansoni [3] of 194 nM. Also, the Worm movement inhibition in the assay with Schistosoma mansoni [4] amounted to 40.22%.
On to `OCCCNc1cc(-c2ccnc(Nc3cccc(Cl)c3)n2)ccn1`, for which the In vitro activity entry in the assay on Schistosoma mansoni [1] and with Schistosoma mansoni [2] was “Active” in each case. The molecule also showed an EC50 in the assay on Schistosoma mansoni [3] of 410 nM. The same molecule showed a Worm movement inhibition in the assay with Schistosoma mansoni [4] of 98.94%.

Source of the values: ChEMBL document CHEMBL5096127, “Using ChEMBL to complement schistosome drug discovery” (2023).
